Experimental data from paper PMC4186430, “Modeling of age-dependent amyloid accumulation and γ-secretase inhibition of soluble and insoluble Aβ in a transgenic mouse model of amyloid deposition” (Pharmacology Research & Perspectives, 2013).

Columns and labels:
soluble Aβ40 production = test: PKPD turnover model of MRK-560 inhibition of soluble Aβ40 production (models A, B, C); assay type: in vivo, Tg2576 transgenic mice; conditions: for IC50: Mus musculus
Protocol: In a second step, drug effect data were added to the AP analysis in order to develop an integrated PKPD model that incorporated both age-dependent AP and an age-dependent drug effect. To this end, the initially developed logistic model (eq. 3) was combined with a turnover model (Dayneka et al. [1993]; Jusko and Ko [1994]). This part of the analysis was only performed for soluble and insoluble Aβ40, as drug effect data for Aβ42 were not available from all studies. In this approach, the age-dependent AP causing an increase in soluble Aβ40 production (Kin,sol) was described following equations (4 and 5): [drawing 4] (4) [drawing 5] (5) in which Kin,sol and kout,sol corresponded to the production and loss of soluble Aβ40, respectively.
The inhibitory effect of MRK-560 on soluble Aβ40 was modeled using a turnover model (eq. 4), where the production of soluble Aβ40 was inhibited by the drug concentration. The model took into account the time delay between changes in plasma concentration of the drug and changes insoluble Aβ40 levels. Three types of drug effect models were evaluated: (A) absolute (eq. 6), (B) relative change from the baseline (eq. 7), and (C) modified relative change from the baseline (eq. 7). In model B the IC50(solAβ40) was constant, while in model C it was dependent on the soluble Aβ40 levels via a linear function as shown in equation (8).
Kin,sol corresponded to the age-dependent production of soluble Aβ40, kout,sol corresponded to the loss of soluble Aβ40, Imax was a maximum drug-induced soluble Aβ40 reduction (either absolute or relative reduction from the baseline for eqs. 6 and 7, respectively), CBr represented the brain concentrations, IC50 was a concentration which induced half of the maximum inhibition, while AP corresponded to the AP, described using equation (3). Additionally, parameter SL represented a slope of the linear relationship between absolute Aβ40 levels and IC50.
Changes in soluble Aβ40 were assumed to change the production of insoluble Aβ40. This effect was modeled using a turnover model and was described using equations (9–11): [drawing 9] (9) [drawing 10] (10) [drawing 11] (11) where Kin,insol was the production of insoluble Aβ40, which was dependent on the soluble Aβ40 levels, kout,insol was the loss of insoluble Aβ40, and SCALE was the scaling function between soluble and insoluble Aβ40 levels. Similar as in equation (3), α2 from equation (11) was the upper asymptote in the logistic function, ECi2 was a point of inflection and P2 was the slope parameter. A graphical representation of the PKPD model can be found in Figure 1.
All modeling analyses were performed in NONMEM (version 7.1.0, ICON Development Solutions, Ellicott City, MD [Schoemaker and Cohen [1996]]). The best models were chosen based on the analysis of their objective function, the precision of parameter estimates, and goodness-of-fit plots. The analysis of NONMEM output was performed using R software (R Development Core Team [2008]) and Xpose4 package (Jonsson and Karlsson [1998]). The 90% prediction intervals were calculated using the visual predictive check (VPC) as described by (Post et al. [2008]). In brief, 1000 simulations of the data were performed using final parameter estimates and 5th, 50th, and 95th percentiles were calculated.

soluble Aβ40 = test system: soluble Aβ40; parameters: method as in Townsend et al. [2010]; conditions: 12-month-old Tg2576 mice; 3-month MRK-560 treatment; ref Townsend et al. [2010]; cited from earlier work
[1] = model A (absolute drug effect), estimate (SE%)

IC50 (soluble Aβ40 production; [1]): 90 nM
IC50 (soluble Aβ40 production; model B (relative drug effect, constant IC50), estimate (SE%)): 190 nM
IC50 (soluble Aβ40 production; model C, 5-month-old Tg2576 mice, brain concentration): 110 nM
IC50 (soluble Aβ40 production; model C, 25-month-old Tg2576 mice, brain concentration): 12000 nM
Structure (SMILES): O=S(=O)(NC1CCC(c2cc(F)ccc2F)(S(=O)(=O)c2ccc(Cl)cc2)CC1)C(F)(F)F (stereo not drawn) [MRK-560, N-[cis-4-[(4-chlorophenyl)-sulfonyl]-4-(2,5-difluorophenyl)cyclohexyl]-1,1,1-trifluoromethanesulfonamide]
Imax (soluble Aβ40 production; final model (model C)): 86%
Imax (soluble Aβ40 production; [1]): 59 (4) pg/mg
Imax (soluble Aβ40 production; model B (relative drug effect), estimate (SE%)): 88 (10) %
decrease in soluble Aβ40 levels (soluble Aβ40): 63%
